“And” between values parts separate entries of the source, which are not always exact repeats. Equal values may be shown once.
Key:
[1] = molecular target: Histamine H1 receptor (Homo sapiens, UniProt P35367)
[2] = molecular target: Histamine H1 receptor (Cavia porcellus, UniProt P31389)
Histamine H1 receptor (Cavia porcellus, UniProt P31389), sequence (P31389 whole entry): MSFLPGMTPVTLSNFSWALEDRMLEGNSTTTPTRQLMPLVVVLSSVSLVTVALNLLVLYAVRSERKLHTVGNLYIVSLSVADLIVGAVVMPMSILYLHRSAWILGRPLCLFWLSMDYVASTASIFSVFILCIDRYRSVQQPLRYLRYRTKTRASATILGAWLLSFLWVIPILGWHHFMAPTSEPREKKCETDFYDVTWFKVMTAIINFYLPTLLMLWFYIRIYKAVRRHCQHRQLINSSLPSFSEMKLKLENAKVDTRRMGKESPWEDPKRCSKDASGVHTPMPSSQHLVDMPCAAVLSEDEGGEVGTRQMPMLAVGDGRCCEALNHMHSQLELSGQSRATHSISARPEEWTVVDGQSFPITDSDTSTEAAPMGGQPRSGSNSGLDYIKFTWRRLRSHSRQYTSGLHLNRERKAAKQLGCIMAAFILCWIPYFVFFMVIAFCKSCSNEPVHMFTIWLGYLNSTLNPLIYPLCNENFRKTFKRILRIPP

Histamine H1 receptor (Homo sapiens, UniProt P35367), sequence (P35367 whole entry): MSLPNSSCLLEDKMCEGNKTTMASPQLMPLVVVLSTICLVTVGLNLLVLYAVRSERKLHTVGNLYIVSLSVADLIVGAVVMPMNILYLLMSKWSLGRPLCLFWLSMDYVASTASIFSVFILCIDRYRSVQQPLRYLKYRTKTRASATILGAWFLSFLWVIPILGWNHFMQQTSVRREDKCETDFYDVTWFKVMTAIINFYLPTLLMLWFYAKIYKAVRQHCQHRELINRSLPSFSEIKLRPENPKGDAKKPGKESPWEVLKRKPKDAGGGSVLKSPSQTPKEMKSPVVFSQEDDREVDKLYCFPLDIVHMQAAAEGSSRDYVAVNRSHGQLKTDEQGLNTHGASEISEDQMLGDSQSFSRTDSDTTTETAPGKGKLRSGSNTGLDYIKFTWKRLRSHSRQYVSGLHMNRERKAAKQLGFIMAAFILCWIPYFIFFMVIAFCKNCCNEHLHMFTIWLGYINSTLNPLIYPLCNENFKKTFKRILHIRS

SMILES	Ki [1]	Ki [2]
CC(C(=O)NC(N)=NCCCc1cnc[nH]1)C1CCCCC1 (configuration not stated) [UR-AK59]	6 µM and 2.3 µM	11000 nM
CC(C(=O)NC(N)=NCCCc1cnc[nH]1)c1ccccc1 (configuration not stated) [UR-AK68]	3.5 µM	
N=C(NCCCc1c[nH]cn1)NC(=O)CCCc1ccccc1 [UR-AK67]	14 µM	2200 nM
NC(=NCCCc1cnc[nH]1)NC(=O)CC1CCCCC1 [UR-AK62]	7 µM	4700 nM

Results, then the molecule that gave them:

Ki [1]	Ki [2]	SMILES
	2600 nM and 1600 nM	CC(CC(=O)NC(N)=NCCCc1cnc[nH]1)C1CCCCC1 (configuration not stated) [UR-AK24]
0.99 µM	350 nM	N=C(NCCCc1c[nH]cn1)NC(=O)CCCC1CCCCC1 [UR-AK64]
2.9 µM	440 nM	N=C(NCCCc1c[nH]cn1)NC(=O)CCCCc1ccccc1 [UR-AK22]

Source: BindingDB's records for doi:10.1124/jpet.106.102897 (University of Kansas, 2006)
